Experiments:
Assay type in all cases: cell-based
[1] = target: T1, TLR8 (Homo sapiens, UniProt Q9NR97)
T1 construct: expressed in transfected cells
T1 sequence (Q9NR97 27-1041): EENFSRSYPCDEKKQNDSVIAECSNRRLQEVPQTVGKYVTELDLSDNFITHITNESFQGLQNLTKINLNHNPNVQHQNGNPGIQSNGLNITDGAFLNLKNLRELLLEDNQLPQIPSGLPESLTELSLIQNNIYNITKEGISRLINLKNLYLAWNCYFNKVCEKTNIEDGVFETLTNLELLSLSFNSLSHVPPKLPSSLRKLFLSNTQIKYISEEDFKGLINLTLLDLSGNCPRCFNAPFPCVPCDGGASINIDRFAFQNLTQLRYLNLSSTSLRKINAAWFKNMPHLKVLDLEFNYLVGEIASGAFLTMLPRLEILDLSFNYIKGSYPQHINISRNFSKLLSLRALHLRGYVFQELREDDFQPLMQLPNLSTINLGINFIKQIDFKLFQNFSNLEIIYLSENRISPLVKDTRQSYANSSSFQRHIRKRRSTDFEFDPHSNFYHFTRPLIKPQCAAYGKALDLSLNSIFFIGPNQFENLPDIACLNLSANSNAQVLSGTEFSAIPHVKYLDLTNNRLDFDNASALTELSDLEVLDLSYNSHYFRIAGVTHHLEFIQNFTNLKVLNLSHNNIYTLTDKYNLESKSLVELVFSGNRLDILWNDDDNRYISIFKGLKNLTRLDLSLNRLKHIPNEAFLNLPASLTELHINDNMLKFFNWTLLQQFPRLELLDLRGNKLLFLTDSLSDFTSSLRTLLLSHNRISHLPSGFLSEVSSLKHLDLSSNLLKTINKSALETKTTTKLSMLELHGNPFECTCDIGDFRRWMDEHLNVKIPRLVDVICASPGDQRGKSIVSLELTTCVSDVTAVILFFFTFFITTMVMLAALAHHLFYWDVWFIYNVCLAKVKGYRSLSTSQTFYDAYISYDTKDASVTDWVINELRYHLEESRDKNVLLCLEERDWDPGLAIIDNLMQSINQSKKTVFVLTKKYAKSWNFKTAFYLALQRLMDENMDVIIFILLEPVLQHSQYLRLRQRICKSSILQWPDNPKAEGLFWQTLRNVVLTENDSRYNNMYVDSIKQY
Experimental: (§1) Human U205-TLR7 and Human U205-TLR8 cells were grown at 37 degrees in the presence of 5% CO2 and were cultured in Dulbeco's modified Eagle's Medium (DMEM), 1% non essential amino acids, supplemented with fetal bovine serum at 10% and 100 ug/ml streptomycin and 100 u/ml penicillin. Stable expression of TLR7 and TLR8 was maintained by the addition of 300 ug/ml […].
(§2) TLR7 and TLR8 expressing U2OS osteosarcoma cells were seeded in 96-well plate format at a concentration of 2×10^4 cells/well 24 hours prior to transfection. Cells were transfected with the siNAs using DharmaFECT1 lipid transfection reagent using Resiquimod (R848) and the LyoVec-complexed, GU-rich oligonucleotide ssRNA40 respectively as controls (100 μl/well). (DharmaFECT1 was used as the delivery agent for the siNAs as it combines low immunostimulatory effects with high delivery efficiency.) The treatment media were replaced after 6 hours with antibiotic containing DMEM. Cells were harvested 24 hours following transfection. […] An agonist concentration range of 4-10 μg/ml was established since it caused optimal levels of IL8 mRNA expression for the assay.
(§3) TLR7 and TLR8 mediated immunostimulation was measured by the increase in IL8 mRNA levels when the siNAs were formulated with DharmaFect1 (Gibco BRL) and delivered to U2OS cells that were engineered to stably express TLR7 or TLR8. The cells were treated with the TLR7 and TLR8 agonists Resiquimod (R848) and ssRNA40/LyoVec respectively to act as positive controls for IL8 mRNA induction. IL8 mRNA levels were used as a biomarker of TLR7 and TLR8 mediated immunostimulation.

[2] = target: T2, TLR7 (Homo sapiens, UniProt Q9NYK1)
T2 construct: expressed in transfected cells
T2 sequence (Q9NYK1 27-1049): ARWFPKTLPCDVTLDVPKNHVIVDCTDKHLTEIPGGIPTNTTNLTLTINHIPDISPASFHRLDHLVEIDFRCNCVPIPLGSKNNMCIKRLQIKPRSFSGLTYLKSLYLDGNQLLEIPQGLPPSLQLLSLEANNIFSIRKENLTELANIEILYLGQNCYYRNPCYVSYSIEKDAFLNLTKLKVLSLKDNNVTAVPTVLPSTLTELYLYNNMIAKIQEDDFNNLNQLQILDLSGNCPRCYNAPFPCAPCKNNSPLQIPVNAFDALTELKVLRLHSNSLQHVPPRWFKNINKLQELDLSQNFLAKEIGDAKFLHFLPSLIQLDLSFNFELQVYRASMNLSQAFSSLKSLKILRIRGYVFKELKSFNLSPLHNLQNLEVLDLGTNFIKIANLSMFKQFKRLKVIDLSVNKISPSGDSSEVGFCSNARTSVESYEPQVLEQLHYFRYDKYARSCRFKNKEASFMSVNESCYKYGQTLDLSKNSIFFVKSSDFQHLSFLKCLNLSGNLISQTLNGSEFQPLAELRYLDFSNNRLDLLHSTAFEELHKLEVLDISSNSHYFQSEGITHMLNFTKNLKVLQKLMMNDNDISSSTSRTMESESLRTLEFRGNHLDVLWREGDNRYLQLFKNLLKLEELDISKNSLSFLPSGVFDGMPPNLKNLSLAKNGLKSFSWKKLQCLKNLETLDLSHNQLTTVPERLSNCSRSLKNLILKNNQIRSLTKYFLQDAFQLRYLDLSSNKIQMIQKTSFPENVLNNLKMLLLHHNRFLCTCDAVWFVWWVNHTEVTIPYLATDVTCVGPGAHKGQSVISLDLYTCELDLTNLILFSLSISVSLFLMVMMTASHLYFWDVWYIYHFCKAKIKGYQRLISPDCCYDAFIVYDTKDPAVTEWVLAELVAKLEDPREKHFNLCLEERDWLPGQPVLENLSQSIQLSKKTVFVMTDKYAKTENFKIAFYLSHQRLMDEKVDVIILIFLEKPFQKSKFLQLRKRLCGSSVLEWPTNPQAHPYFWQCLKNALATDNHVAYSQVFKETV
Experimental: as §1, §2, §3

[3] = tested on: human GAPDH mRNA transcript; assay: GAPDH specificity screen in human A549 cells; details: Table 5; 1 nM siNA, STAT 4 as endogenous control, relative to universal control siNA
Experimental: To evaluate the expression level and % knock-down of GAPDH, STAT 4 gene was used as an endogenous control to calculate ΔCt for siNA treated samples and the universal control:
STAT 4 gene was selected as an internal normalizer based on its relatively consistent expression across 49 test samples in three independent experiments. ΔΔCt, Relative expression level and % KD were calculated as described above.
The specificity of these siNAs was also assessed. These siNAs were tested at a lower concentration (1 nM versus the original screening concentration of 10 nM) to determine the effect of the Bach1 siNAs on the mRNA transcript of human GAPDH.

| Substance | Immunostimulation TLR8 mediated in Human U2OS-TLR8 cells IL8 mRNA increase n = 4 individual expts [1] | Immunostimulation TLR7 mediated in Human U2OS- TLR7 cells IL8 mRNA increase n = 4 individual expts [2] | % KD GAPDH [3] | TLR8 mediated immunostimulatory activity (IL8 mRNA induction) [1] | TLR7 mediated immunostimulatory activity (IL8 mRNA induction) [2] |
| --- | --- | --- | --- | --- | --- |
| 29957-DC (sense GCAGUUACUUCCACUCAAGTT; antisense CUUGAGUGGAAGUAACUGCUU; inverted abasic end caps, TT overhangs, modified nucleotides, further chemistry not given here) | Upregulation up to 100 nM | Upregulation up to 100 nM | −10 ± 9% | – | – |
| 29964-DC (sense GAUUUGCAGGUGAUGUUAATT; antisense UUAACAUCACCUGCAAAUCUU; inverted abasic end caps, TT overhangs, modified nucleotides, further chemistry not given here) | No significant effect up to 100 nM | No significant effect up to 100 nM | 14 ± 2% | no TLR8 mediated immunostimulatory activity | no or very low TLR7 mediated immunostimulatory activity |
| 29984-DC (sense GUUAAAGGAUUUGAACCUUTT; antisense AAGGUUCAAAUCCUUUAACUU; inverted abasic end caps, TT overhangs, modified nucleotides, further chemistry not given here) | No significant effect up to 100 nM | No significant effect up to 100 nM | – | no TLR8 mediated immunostimulatory activity | no or very low TLR7 mediated immunostimulatory activity |
| 29961-DC (sense CUACACUGCUAAACUGAUUTT; antisense AAUCAGUUUAGCAGUGUAGUU; inverted abasic end caps, TT overhangs, modified nucleotides, further chemistry not given here) | No significant effect up to 100 nM | No significant effect up to 100 nM | 7 ± 7% | no TLR8 mediated immunostimulatory activity | no or very low TLR7 mediated immunostimulatory activity |
| 29988-DC (sense AUUUGAACCUUUAAUUCAGTT; antisense CUGAAUUAAAGGUUCAAAUUU; inverted abasic end caps, TT overhangs, modified nucleotides, further chemistry not given here) | No significant effect up to 100 nM | No significant effect up to 100 nM | 23 ± 5% | no TLR8 mediated immunostimulatory activity | no or very low TLR7 mediated immunostimulatory activity |
| 29956-DC (sense GUCUGAGUGUCCGUGGUUATT; antisense UAACCACGGACACUCAGACUU; inverted abasic caps (B), 2'-modified nucleotides, further chemistry not given here) | No significant effect up to 100 nM | No significant effect up to 100 nM | −18 ± 15% | – | – |
| 29947-DC (sense GGAAUCCUGCUUUCAGUUUTT; antisense AAACUGAAAGCAGGAUUCCUU; inverted abasic caps (B), 2'-modified nucleotides, further chemistry not given here) | No significant effect up to 100 nM | No significant effect up to 100 nM | −15 ± 29% | no TLR8 mediated immunostimulatory activity | no or very low TLR7 mediated immunostimulatory activity |

From patent US20120016010A1, “RNA Interference Mediated Inhibition of BTB and CNC Homology 1, Basic Leucine Zipper Transcription Factor 1 (BACH1) Gene Expression Using Short Interfering Nucleic Acid (siNA)” (Merck Sharp & Dohme Corp, priority 2009, published 2012)
